Test results as given in ChEMBL document CHEMBL6096714, “Advancements in Neurotechnology: Pioneering Brain Monitoring and Stimulation for Enhanced Treatment and Understanding” (ACS Med Chem Lett, 2025).
Active and inactive are the calls of the source. No cut-off for these calls is given here.

How the values were obtained:
Format in all cases: functional, cell-based
Cortical neurone [1] = assay: Neuroplasticity effect in female Wistar rat Cortical neuron assessed as increase in neurite branching at 10 uM incubated for […]
Cortical neurone [2] = assay: Neuroplasticity effect in female Wistar rat Cortical neuron assessed as increase in neurite number at 10 uM incubated for […]
Cortical neurone [3] = assay: Neuroplasticity effect in female Wistar rat Cortical neuron assessed as increase in neurite length at 10 uM incubated for […]

| Compound | Activity (Cortical neurone [1]) | Activity (Cortical neurone [2]) | Activity (Cortical neurone [3]) |
| --- | --- | --- | --- |
| Fc1ccc(Oc2ccc3c4c([nH]c3c2)CCNCC4)cc1 | Active | Active | Active |
| CN1CCc2[nH]c3cc(OCc4ccccc4)ccc3c2CC1 | inactive | Active | Active |
| CN1CCc2[nH]c3cc(OCc4ccc(F)cc4)ccc3c2CC1 | Active | Active | Active |
| CN1CCc2[nH]c3cc(Oc4ccccc4)ccc3c2CC1 | Active | Active | Active |
| Cn1c2c(c3ccc(OCc4ccccc4)cc31)CCNCC2 | inactive | inactive | inactive |
| c1ccc(COc2ccc3c4c([nH]c3c2)CCNCC4)cc1 | Active | Active | Active |
